One data set concerns C. albicans biofilm. Type of data set: cell-based, Candida albicans. The following applies: 24 h, 60 μM.
For data set [1] the following is noted: peptide-free 41.6 ppm.
Procedure: A single 90° pulse ^31P solid-state NMR experiment was performed on an Agilent NMR spectrometer (DD2) equipped with a 4 mm MAS HXY Solid Probe. Resonance frequencies were 699.88 MHz and 283.31 MHz for ^1H and ^31P, respectively. The TPPM ^1H-decoupled condition was used. LUVs were kept in a diameter of 4 mm Pyrex glass tube sealed with parafilm at an ambient temperature. ^31P spectra were collected with 512∼1000 scans and a recycle delay of 2 s. The spectra were referenced externally to 85% phosphoric acid (0 ppm).
^31P solid-state NMR experiments were performed using the Agilent NMR spectrometer (DD2) functioning at the resonance frequency of 283.31 MHz for ^31P and 699.88 MHz for ^1H, equipped with a 4 mm MAS HXY Solid Probe. MLVs were prepared by dissolving POPC, POPE, and ERG (5:4:3) in chloroform to obtain a stock of 5 mg/ml. The lipid mixtures were dried under nitrogen gas, lyophilized overnight followed by dissolving the lipid film in Tris buffer (pH 7.4), and hydrated for 1 h by vortexing occasionally and freeze–thawing five times. A single 90◦ pulse and 24 kHz TPPM proton decoupling were used. The π/2 pulse lengths were set at 6.8 μs for the ^31P nucleus. MLVs were kept in a 4 mm Pyrex glass tube, which was fit into the MAS probe, and sealed with parafilm. […] MestReNova software (version 8.1) with 250 Hz line broadening was used for spectra processing.
For data set [2] the following is noted: increased concentration of SA-XV.
Procedure: Fungal model membrane mimics composing 5:4:3 POPC/POPE/ERG were created following the standard protocol. […] The lipid film was created after drying in a stream of nitrogen gas and lyophilizing overnight. The lipid film was then hydrated with 70 mM calcein dissolved in 10 mM Tris buffer (pH 7.4), followed by vigorous vortexing for 30 min and subjecting to five freeze–thaw cycles in liquid nitrogen and lukewarm water to obtain the dye-entrapped vesicles. The vesicles were then passed through a 100-nm polycarbonate membrane filter stacked in a mini extruder (Avanti Polar Lipids) set up to obtain LUVs. […]
Dye-encapsulated liposomes were suspended in an extravesicular buffer containing 10 mM Tris buffer and 100 mM NaCl (pH 7.4). The leakage of calcein caused by liposome disruption was analyzed by fluorescence emission at 519 nm using a JASCO F-8500 fluorescence spectrophotometer. […] S100A12 was added at functional concentrations, and enhancement in fluorescence was measured. […] Percentage leakage was calculated using the equation. […]
where, F0, F, and FT denote the basal fluorescence intensity, fluorescence intensity after addition of peptides, and maximum fluorescence intensity obtained after addition of 0.1% Triton X-100, respectively.
For data set [3], the system named is human corneal epithelial cells (HCEC). Nature of the data set: in vitro. Type of data set: cell-based. Here is the method: (§1) Supplementary experimental procedures
(§2) Cell culture and in vitro scratch assay
(§3) Aldrich, St. Louis, MO) as described earlier (3). In brief, cells (2x10^4 cells/well) were seeded into 96 well plates and cultured overnight. Cells were treated with different concentration of […]
(§4) reader SpectraMax M3 (Softmax Pro 6.3). […]

Data set [4] is described as follows: in vitro. The following applies: human. The data set is classed as cell-based, human. As to the method:
as §1, §2, §3, §4

The subject of data set [5] is peripheral blood mononuclear cells (PBMC). The data set is classed as cell-based. Here is the method:
as §1, §2, §3, §4

Data set [6] deals with sinonasal epithelial cells (SNEC). Type of data set: cell-based. As to the method: as §1, §2, §3, §4
Data set [7] concerns Fusarium spp. ocular clinical isolates. Type of data set: cell-based. The following applies: 48 h. Here is the method: (§5) The ocular clinical isolates of F. solani (n = 5) and C. albicans (n = 5) were obtained from Jhaveri Microbiology Centre, LVPEI, India. The isolates were grown at 29 °C in Sabouraud dextrose broth (SDB; Himedia) for 48 h. Fusarium conidia (spores) were harvested as described before ([69]), centrifuged at 8000 rpm for 15 min to pellet the conidia, washed in 10 mM phosphate buffer (pH 7.4) twice, and resuspended in the same. Candida was grown in SDB overnight, centrifuged, washed, and resuspended similarly. F. solani and C. albicans (1 × 10^4 conidia) were grown in the presence or absence of different concentrations of SA-XV in SDB in a 96-well microtiter plate and incubated at 29 °C for 24 h. Negative controls consisting of fungus only and a positive control consisting of fungus treated with AmpB (55 μM) were incubated simultaneously. The culture was then diluted accordingly and plated in potato dextrose agar (PDA) plates and incubated further for 24 h. The effect of the peptide was determined by quantifying the CFUs on the PDA plates. The effect of SA-XV on A. flavus was also determined similarly. All the experiments were performed at least thrice and in triplicate.

Another data set has as its system Candida albicans. Type of data set: cell-based. To be noted: 48 h. Here is the method:
as §5

A further data set deals with Fusarium solani. The data set is classed as cell-based. The following applies: 48 h. As to the method:
as §5

Data set [8] has as its system C. albicans ocular clinical isolates. The data set is classed as cell-based, Candida albicans. The following applies: 48 h. As to the method: as §5
The next data set deals with C. albicans. Type of data set: cell-based, Candida albicans. As to the method: Fusarium spp. or Candida spp. (1 × 10^4 conidia) were incubated with 60 μM of FITC-SA-XV at 4 °C or 29 °C or different time points in SDB. The conidia were then washed three times with Milli-Q water and fixed using 4% paraformaldehyde. In some experiments, DAPI (Vectashield) or MitoTracker (Invitrogen) were used to stain specific cell organelles. In a different experiment, cytochrome c was detected in peptide-treated or untreated cells by incubating with anti–cytochrome c antibody (1:100 dilution; BioLegend), followed by Alexa Fluor 488 secondary antibody (1:1000 dilution; Thermo Fisher Scientific). In a separate experiment, the spores were incubated with SA-XV for 4 h in the presence or absence of FD (SR LifeScience Solution) of different molecular weights, washed with Milli-Q water, and fixed using 4% paraformaldehyde. The conidia were imaged using a 63× objective in a confocal microscope (LSM 880; Zeiss).

A further data set deals with chorioallantoic membrane. The arrangement: species or system hen. As to the method:
as §1
Cell culture and in vitro scratch assay […]
SA-XV was added directly onto the chorioallantoic
M sodium hydroxide solution.

The conditions of data set [9]: n = 3.
Data set [10] is described as follows: in vitro. To be noted: 25% fetal bovine serum in RPMI media.
Procedure: mentioned previously (5).
supplemented with 25% FBS at 37 °C for 15 min. 100 µl aliquots were taken at different time
intervals (0, 30, 60, 120, 180, and 240 min). 200 µl of 96% ethanol was added to precipitate the
serum followed by centrifugation at 12000 x g for 2 min. 20 µl of the supernatant was subjected
to a LC-20AT reverse phase HPLC system (SHIMADZU, Japan) equipped with Phenomenix
C18 column (250x10 mm, pore size 100 Å, particle size 5 µm), at room temperature, using
acetonitrile and water with 0.1 % TFA as the solvents. A flow rate of 1ml/min was maintained.
The percentage of peptide remaining in the supernatant at different time intervals were analysed
by peak integration using SPINCHROME CFR software, and the area obtained was normalized with respect to the free peptide.
Another data set deals with F. solani. Nature of the data set: Murine model of F. solani keratitis. To be noted: 48 h postinfection; SA-XV at 0 and 6 h or 6 and 18 h, AmpB at 0 and 6 h.
In data set [11] the test system is T7 RNA polymerase, plasmid DNA. Nature of the data set: In vitro transcription assay. Type of data set: biochemical. To be noted: 2 h, 37 °C, agarose gel. As to the method:
In vitro transcription assay was done using the commercial kit Riboprobe System-T7 (Promega), according to the instructions for positive control samples but adding different concentrations of peptide to the reactions. As a negative control, the DNA template was omitted from the reaction mix. After 2 h of incubation at 37 °C, samples were run in a 1.2% agarose gel in TAE buffer and imaged using the Gel Doc System (Bio-Rad).

Experimental findings from publication PMC12552953, “SA-XV, a 15-amino acid fragment of host defense peptide S100A12, targets mitochondria and is protective against fungal infections” (The Journal of Biological Chemistry, 2025) are described below.

Where two headings read alike, the source gives them in different places. Where no end group is shown, it is not given here. Bounds are passed on as bounds.

Procedure for F. solani: C57BL/6 mice (6–8 weeks old) were anesthetized by intraperitoneal injection using ketamine (8.7 mg/ml) and xylazine (0.5 mg/ml) at a dose of 120 μl/g body weight. While anesthetized, the corneal epithelium was abraded with three parallel vertical and horizontal scratches with a 26-gauge needle, and F. solani (10^7 conidia in 2.5 μl) were added in one eye, whereas the fellow eye received 1× PBS (n = 5). […] One more group of mice (n = 5) was infected with F. solani followed by topical application of AmpB (5 μg) at 0 and 6 h postinfection. Mice were euthanized and examined under a stereomicroscope for density and area of corneal opacification or ulceration 48 h postinfection and photographed using a digital camera. Clinical scores for the opacity were determined in a blinded fashion according to the scale earlier reported ([90]), eyes were enucleated and homogenized using a tissue homogenizer (Ez-Lyzer; Genetix Biotech) in sterile 1× PBS, and homogenates were plated on PDA plates for determining CFUs.

Turning to VAIALKAAHYHTHKE [SA-XV], the “inhibition of biofilm formation” value in the data set on C. albicans biofilm is “more than 70%”. Besides, the “chemical shift anisotropy span” value in [1] (1 mol% peptide) is given as 44.6 ppm; in data set [1] (3 mol% peptide), 46.4 ppm. The “dye leakage from fungal-membrane liposomes” value in data set [2] is listed as “Increased dye leakage”. Further, the “penetration into HCECs” value with HCECs is listed as “to some extent”. For the same molecule, the cytotoxicity result in [3], in data set [5] and in data set [6] was “did not show any substantial cytotoxicity” throughout. Further, in “in vitro [4]”, the IC50 at 24 h was 302 µM. Besides, the “% Growth Inhibition by SA-XV (60 μM)” value in data set [7] and in [8] was 99.99% each time. The MIC90 against Candida albicans and in the data set with Fusarium solani was 15 µM throughout. Also, the “translocation into fungal cells” value in the data set on C. albicans is “translocates”. Moreover, the irritation effect entry in the data set on chorioallantoic membrane was “nonirritant”. Besides, the “histopathology of corneal sections” value in [9] is “no damages or abnormalities”. Further, the corneal findings result in data set [9] (peptide four times at 3 h interval for 2 days, no edema or hyperemia) is listed as “no corneal erosions or opacity”. Further, the half-life at 1 mg/ml in “in vitro [10]” is more than 3 h.
As for `C[C@@H]1[C@H](O)[C@@H](C)/C=C/C=C/C=C/C=C/C=C/C=C/C=C/[C@H](O[C@@H]2O[C@H](C)[C@@H](O)[C@H](N)[C@@H]2O)C[C@@H]2O[C@](O)(C[C@@H](O)C[C@@H](O)[C@H](O)CC[C@@H](O)C[C@@H](O)CC(=O)O[C@H]1C)C[C@H](O)[C@H]2C(=O)O` [AmpB, amphotericin B], the corneal opacification entry in the data set on F. solani was “Distinct reduced opacification”. Further, in data set [11], the “RNA synthesis in vitro” value was “did not show any appreciable effect”.

Usually IC50 stands for the concentration needed to halve the response being measured. A lower IC50 goes with higher potency. By MIC90 is commonly meant the lowest concentration that inhibits either 90% of growth or 90% of the strains tested, depending on the study. Low values mean greater potency, high ones weaker potency. A word on the half-life: it is the time in which the quantity being followed falls by half.
